What was measured:
Format in all cases: in vivo
Conditions in all cases: evaluated after 13 days
[1] = test system: Amaranthus palmeri (AMAPA); test: Pre-emergence Test, Amaranthus palmeri (AMAPA)
[2] = test system: Echinochloa crus-galli (ECHCG); test: Pre-emergence Test, Echinochloa crus-galli (ECHCG)
[3] = test system: Setaria faberi (SETFA); test: Post-emergence Test, Setaria faberi (SETFA); design: key to percentage damage caused to the plant, SETFA (five-point scale): 5=81-100%, 4=61-80%, 3=41-60%, 2=21-40%, 1=0-20% damage
Summary of the method: (§1)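 Sown pots in a glasshouse (24/16 °C day/night, 14 h light, 65% humidity) were sprayed with compound in acetone/water (50:50) with 0.5% Tween 20, at 1000 g/ha unless otherwise stated. Damage was assessed 13 days after spraying and scored 1–5 (5=81-100%, 1=0-20%).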

[4] = test system: Amaranthus palmeri (AMAPA); test: Post-emergence Test, Amaranthus palmeri (AMAPA); design: key: 5=81-100%, 4=61-80%, 3=41-60%, 2=21-40%, 1=0-20% damage
Summary of the method: as §1

[5] = test system: Echinochloa crus-galli (ECHCG); test: Post-emergence Test, Echinochloa crus-galli (ECHCG); design: key to percentage damage caused to the plant, ECHCG (five-point scale): 5=81-100%, 4=61-80%, 3=41-60%, 2=21-40%, 1=0-20% damage
Summary of the method: as §1

[6] = test system: Amaranthus retoflexus (AMARE); test: Post-emergence Test, Amaranthus retoflexus (AMARE); design: key to percentage damage caused to the plant, AMARE (five-point scale): 5=81-100%, 4=61-80%, 3=41-60%, 2=21-40%, 1=0-20% damage
Summary of the method: as §1

[7] = test system: Amaranthus retoflexus (AMARE); test: Pre-emergence Test, Amaranthus retoflexus (AMARE)
[8] = test system: Zea mays (ZEAMX); test: Post-emergence Test, Zea mays (ZEAMX); design: key to percentage damage caused to the plant, ZEAMX (five-point scale): 5=81-100%, 4=61-80%, 3=41-60%, 2=21-40%, 1=0-20% damage
Summary of the method: as §1

[9] = test system: Setaria faberi (SETFA); test: Pre-emergence Test, Setaria faberi (SETFA)
[10] = test system: Ipomoea hederacea (IPOHE); test: Post-emergence Test, Ipomoea hederacea (IPOHE); design: key to percentage damage caused to the plant, IPOHE (five-point scale): 5=81-100%, 4=61-80%, 3=41-60%, 2=21-40%, 1=0-20% damage
Summary of the method: as §1

[11] = test system: Ipomoea hederacea (IPOHE); test: Pre-emergence Test, Ipomoea hederacea (IPOHE)
[12] = test system: Zea mays (ZEAMX); test: Pre-emergence Test, Zea mays (ZEAMX)

CCn1c(Cn2ccc(Cl)n2)cc(=O)c(C(=O)O)c1-c1ccc(Cl)c(Cl)c1 [Compound 4, 6-[(3-chloropyrazol-1-yl)methyl]-2-(3,4-dichlorophenyl)-1-ethyl-4-oxo-pyridine-3-carboxylic acid]
Pre-emergence Test AMAPA, percentage damage caused to the plant (five-point scale) ([1]; 250 g/Ha (*)): 0
Pre-emergence Test AMAPA, percentage damage caused to the plant (five-point scale) ([1]; 1000 g/ha): 1 (1=0-20%)
Pre-emergence Test ECHCG, percentage damage caused to the plant (five-point scale) ([2]; 250 g/Ha (*)): 5 (5=81-100%)
Pre-emergence Test ECHCG, percentage damage caused to the plant (five-point scale) ([2]; 1000 g/ha): 5 (5=81-100%)
percentage damage caused to the plant, SETFA (five-point scale) ([3]; 250 g/Ha): 4 (4=61-80%)
percentage damage caused to the plant, SETFA (five-point scale) ([3]; 1000 g/ha): 4 (4=61-80%)
percentage damage caused to the plant, AMAPA (five-point scale) ([4]; 250 g/Ha): 3 (3=41-60%)
percentage damage caused to the plant, AMAPA (five-point scale) ([4]; 1000 g/ha): 4 (4=61-80%)
percentage damage caused to the plant, ECHCG (five-point scale) ([5]; 250 g/Ha): 4 (4=61-80%)
percentage damage caused to the plant, ECHCG (five-point scale) ([5]; 1000 g/ha): 4 (4=61-80%)
percentage damage caused to the plant, AMARE (five-point scale) ([6]; 250 g/Ha): 3 (3=41-60%)
percentage damage caused to the plant, AMARE (five-point scale) ([6]; 1000 g/ha): 2 (2=21-40%)
Pre-emergence Test AMARE, percentage damage caused to the plant (five-point scale) ([7]; 250 g/Ha (*)): 0
Pre-emergence Test AMARE, percentage damage caused to the plant (five-point scale) ([7]; 1000 g/ha): 2 (2=21-40%)
percentage damage caused to the plant, ZEAMX (five-point scale) ([8]; 250 g/Ha): 2 (2=21-40%)
percentage damage caused to the plant, ZEAMX (five-point scale) ([8]; 1000 g/ha): 3 (3=41-60%)
Pre-emergence Test SETFA, percentage damage caused to the plant (five-point scale) ([9]; 250 g/Ha (*)): 5 (5=81-100%)
Pre-emergence Test SETFA, percentage damage caused to the plant (five-point scale) ([9]; 1000 g/ha): 5 (5=81-100%)
percentage damage caused to the plant, IPOHE (five-point scale) ([10]; 1000 g/ha): 4 (4=61-80%)
Pre-emergence Test IPOHE, percentage damage caused to the plant (five-point scale) ([11]; 250 g/Ha (*)): 2 (2=21-40%)
Pre-emergence Test IPOHE, percentage damage caused to the plant (five-point scale) ([11]; 1000 g/ha): 3 (3=41-60%)
Pre-emergence Test ZEAMX, percentage damage caused to the plant (five-point scale) ([12]; 250 g/Ha (*)): 1 (1=0-20%)
Pre-emergence Test ZEAMX, percentage damage caused to the plant (five-point scale) ([12]; 1000 g/ha): 3 (3=41-60%)

CCn1c(Cn2cnc(Cl)n2)cc(=O)c(C(=O)O)c1-c1ccc(Cl)c(Cl)c1 [Compound 5, 6-[(3-chloro-1,2,4-triazol-1-yl)methyl]-2-(3,4-dichlorophenyl)-1-ethyl-4-oxo-pyridine-3-carboxylic acid]
Pre-emergence Test AMAPA, percentage damage caused to the plant (five-point scale) ([1]; 250 g/Ha (*)): 0
Pre-emergence Test AMAPA, percentage damage caused to the plant (five-point scale) ([1]; 1000 g/ha): 2 (2=21-40%)
Pre-emergence Test ECHCG, percentage damage caused to the plant (five-point scale) ([2]; 250 g/Ha (*)): 3 (3=41-60%)
Pre-emergence Test ECHCG, percentage damage caused to the plant (five-point scale) ([2]; 1000 g/ha): 4 (4=61-80%)
percentage damage caused to the plant, SETFA (five-point scale) ([3]; 1000 g/ha): 4 (4=61-80%)
percentage damage caused to the plant, AMAPA (five-point scale) ([4]; 1000 g/ha): 1 (1=0-20%)
percentage damage caused to the plant, ECHCG (five-point scale) ([5]; 1000 g/ha): 1 (1=0-20%)
percentage damage caused to the plant, AMARE (five-point scale) ([6]; 1000 g/ha): 1 (1=0-20%)
Pre-emergence Test AMARE, percentage damage caused to the plant (five-point scale) ([7]; 250 g/Ha (*)): 0
Pre-emergence Test AMARE, percentage damage caused to the plant (five-point scale) ([7]; 1000 g/ha): 0
percentage damage caused to the plant, ZEAMX (five-point scale) ([8]; 1000 g/ha): 2 (2=21-40%)
Pre-emergence Test SETFA, percentage damage caused to the plant (five-point scale) ([9]; 250 g/Ha (*)): 2 (2=21-40%)
Pre-emergence Test SETFA, percentage damage caused to the plant (five-point scale) ([9]; 1000 g/ha): 3 (3=41-60%)
percentage damage caused to the plant, IPOHE (five-point scale) ([10]; 1000 g/ha): 1 (1=0-20%)
Pre-emergence Test IPOHE, percentage damage caused to the plant (five-point scale) ([11]; 250 g/Ha (*)): 0
Pre-emergence Test IPOHE, percentage damage caused to the plant (five-point scale) ([11]; 1000 g/ha): 0
Pre-emergence Test ZEAMX, percentage damage caused to the plant (five-point scale) ([12]; 250 g/Ha (*)): 0
Pre-emergence Test ZEAMX, percentage damage caused to the plant (five-point scale) ([12]; 1000 g/ha): 0

CCn1c(Cn2cc(C(F)(F)F)cn2)cc(=O)c(C(=O)O)c1-c1ccc(Cl)c(Cl)c1 [Compound 6, 2-(3,4-dichlorophenyl)-1-ethyl-4-oxo-6-[[4-(trifluoromethyl)pyrazol-1-yl]methyl]pyridine-3-carboxylic acid]
Pre-emergence Test AMAPA, percentage damage caused to the plant (five-point scale) ([1]; 250 g/Ha (*)): 1 (1=0-20%)
Pre-emergence Test ECHCG, percentage damage caused to the plant (five-point scale) ([2]; 250 g/Ha (*)): 3 (3=41-60%)
Pre-emergence Test ECHCG, percentage damage caused to the plant (five-point scale) ([2]; 1000 g/ha): 3 (3=41-60%)
percentage damage caused to the plant, SETFA (five-point scale) ([3]; 250 g/Ha): 0
percentage damage caused to the plant, SETFA (five-point scale) ([3]; 1000 g/ha): 4 (4=61-80%)
percentage damage caused to the plant, AMAPA (five-point scale) ([4]; 250 g/Ha): 0
percentage damage caused to the plant, AMAPA (five-point scale) ([4]; 1000 g/ha): 2 (2=21-40%)
percentage damage caused to the plant, ECHCG (five-point scale) ([5]; 250 g/Ha): 3 (3=41-60%)
percentage damage caused to the plant, ECHCG (five-point scale) ([5]; 1000 g/ha): 4 (4=61-80%)
percentage damage caused to the plant, AMARE (five-point scale) ([6]; 250 g/Ha): 1 (1=0-20%)
percentage damage caused to the plant, AMARE (five-point scale) ([6]; 1000 g/ha): 0
Pre-emergence Test AMARE, percentage damage caused to the plant (five-point scale) ([7]; 250 g/Ha (*)): 0
Pre-emergence Test AMARE, percentage damage caused to the plant (five-point scale) ([7]; 1000 g/ha): 0
percentage damage caused to the plant, ZEAMX (five-point scale) ([8]; 250 g/Ha): 0
percentage damage caused to the plant, ZEAMX (five-point scale) ([8]; 1000 g/ha): 4 (4=61-80%)
Pre-emergence Test SETFA, percentage damage caused to the plant (five-point scale) ([9]; 250 g/Ha (*)): 2 (2=21-40%)
Pre-emergence Test SETFA, percentage damage caused to the plant (five-point scale) ([9]; 1000 g/ha): 4 (4=61-80%)
percentage damage caused to the plant, IPOHE (five-point scale) ([10]; 250 g/Ha): 1 (1=0-20%)
percentage damage caused to the plant, IPOHE (five-point scale) ([10]; 1000 g/ha): 1 (1=0-20%)
Pre-emergence Test IPOHE, percentage damage caused to the plant (five-point scale) ([11]; 250 g/Ha (*)): 1 (1=0-20%)
Pre-emergence Test IPOHE, percentage damage caused to the plant (five-point scale) ([11]; 1000 g/ha): 2 (2=21-40%)
Pre-emergence Test ZEAMX, percentage damage caused to the plant (five-point scale) ([12]; 250 g/Ha (*)): 0
Pre-emergence Test ZEAMX, percentage damage caused to the plant (five-point scale) ([12]; 1000 g/ha): 0

CCn1c(Cn2cnc(C(F)(F)F)n2)cc(=O)c(C(=O)O)c1-c1ccc(Cl)c(Cl)c1 [Compound 7, 2-(3,4-dichlorophenyl)-1-ethyl-4-oxo-6-[[3-(trifluoromethyl)-1,2,4-triazol-1-yl]methyl]pyridine-3-carboxylic acid]
Pre-emergence Test AMAPA, percentage damage caused to the plant (five-point scale) ([1]; 1000 g/ha): 0
Pre-emergence Test ECHCG, percentage damage caused to the plant (five-point scale) ([2]; 1000 g/ha): 3 (3=41-60%)
percentage damage caused to the plant, SETFA (five-point scale) ([3]; 1000 g/ha): 4 (4=61-80%)
percentage damage caused to the plant, AMAPA (five-point scale) ([4]; 1000 g/ha): 1 (1=0-20%)
percentage damage caused to the plant, ECHCG (five-point scale) ([5]; 1000 g/ha): 2 (2=21-40%)
percentage damage caused to the plant, AMARE (five-point scale) ([6]; 1000 g/ha): 1 (1=0-20%)
Pre-emergence Test AMARE, percentage damage caused to the plant (five-point scale) ([7]; 1000 g/ha): 0
percentage damage caused to the plant, ZEAMX (five-point scale) ([8]; 1000 g/ha): 1 (1=0-20%)
Pre-emergence Test SETFA, percentage damage caused to the plant (five-point scale) ([9]; 1000 g/ha): 3 (3=41-60%)
percentage damage caused to the plant, IPOHE (five-point scale) ([10]; 1000 g/ha): 1 (1=0-20%)
Pre-emergence Test IPOHE, percentage damage caused to the plant (five-point scale) ([11]; 1000 g/ha): 0
Pre-emergence Test ZEAMX, percentage damage caused to the plant (five-point scale) ([12]; 1000 g/ha): 1 (1=0-20%)

CCOC(=O)c1c(-c2ccc(Cl)c(Cl)c2)n(CC)c(Cn2cc(F)cn2)cc1=O [Compound 8, ethyl 2-(3,4-dichlorophenyl)-1-ethyl-6-[(4-fluoropyrazol-1-yl)methyl]-4-oxo-pyridine-3-carboxylate]
Pre-emergence Test AMAPA, percentage damage caused to the plant (five-point scale) ([1]; 1000 g/ha): 0
Pre-emergence Test ECHCG, percentage damage caused to the plant (five-point scale) ([2]; 1000 g/ha): 3 (3=41-60%)
percentage damage caused to the plant, SETFA (five-point scale) ([3]; 1000 g/ha): 4 (4=61-80%)
percentage damage caused to the plant, AMAPA (five-point scale) ([4]; 1000 g/ha): 1 (1=0-20%)
percentage damage caused to the plant, ECHCG (five-point scale) ([5]; 1000 g/ha): 1 (1=0-20%)
percentage damage caused to the plant, AMARE (five-point scale) ([6]; 1000 g/ha): 1 (1=0-20%)
Pre-emergence Test AMARE, percentage damage caused to the plant (five-point scale) ([7]; 1000 g/ha): 0
percentage damage caused to the plant, ZEAMX (five-point scale) ([8]; 1000 g/ha): 1 (1=0-20%)
Pre-emergence Test SETFA, percentage damage caused to the plant (five-point scale) ([9]; 1000 g/ha): 1 (1=0-20%)
percentage damage caused to the plant, IPOHE (five-point scale) ([10]; 1000 g/ha): 1 (1=0-20%)
Pre-emergence Test IPOHE, percentage damage caused to the plant (five-point scale) ([11]; 1000 g/ha): 1 (1=0-20%)
Pre-emergence Test ZEAMX, percentage damage caused to the plant (five-point scale) ([12]; 1000 g/ha): 0

— patent US20250098679A1, “HERBICIDAL PYRIDONE DERIVATIVES” (SYNGENTA CROP PROTECTION AG, priority 2021, published 2025)
